One data set concerns Phytophthora infestans. The class given is in vivo. The settings on record: tomato plants, preventive spray, 500 ppm active ingredient, evaluated 5 days after inoculation.
Data set [1] can be described thus: logP by HPLC on reversed phase columns (EEC directive 79/831 Annex V.A8). The settings on record: for chromatographic logP: pH 2.7; for LogP: method [a]: HPLC/LC-MS at pH 2.7, 0.1% formic acid in water / acetonitrile gradient, Table 1.
Description: (§2) Calibration was done with not branched alkan2-ones (with 3 to 16 carbon atoms) with known log P-values (measurement of log P values using retention times with linear interpolation between successive alkanones). lambda-maX-values were determined using UV-spectra from 200 nm to 400 nm and the peak values of the chromatographic signals.
For data set [2] the following is noted: pH 2.7.
Description: as §2
The next data set deals with Pyrenophora teres. Kind of data set: In vivo preventive test on Pyrenophora teres (net blotch on barley). The following applies: barley plants, preventive spray, 500 ppm active ingredient, evaluated 14 days after inoculation. On the procedure: (§1) The tested active ingredients are prepared by homogenization in a mixture of acetone/Dimethyl sulfoxide/Tween®, and then diluted with water to obtain the desired active material concentration.
The young plants of barley are treated by spraying the active ingredient prepared as described above. Control plants are treated only with an aqueous solution of acetone/Dimethyl sulfoxide/Tween®.
After 24 hours, the plants are contaminated by spraying the leaves with an aqueous suspension of Pyrenophora teres spores. The contaminated barley plants are incubated for 48 hours at 20° C. and at 100% relative humidity and then for 12 days at 20° C. and at 70-80% relative humidity.
The test is evaluated 14 days after the inoculation. 0% means an efficacy which corresponds to that of the control plants while an efficacy of 100% means that no disease is observed.

In another data set the test system is Botrytis cinerea. Kind of data set: In vivo preventive test on Botrytis cinerea (grey mould). The following applies: gherkin plants, preventive spray, 500 ppm active ingredient, evaluated 4 to 5 days after inoculation. On the procedure: as §1
The young plants of gherkin are treated by spraying the active ingredient prepared as described above. Control plants are treated only with an aqueous solution of acetone/Dimethyl sulfoxide/Tween®.
After 24 hours, the plants are contaminated by spraying the leaves with an aqueous suspension of Botrytis cinerea spores. The contaminated gherkin plants are incubated for 4 to 5 days at 17° C. and at 90% relative humidity.
The test is evaluated 4 to 5 days after the inoculation. 0% means an efficacy which corresponds to that of the control plants while an efficacy of 100% means that no disease is observed.

Another data set concerns Plasmopara viticola. Kind of data set: Plasmopara test (grapevines) / preventive. The class given is in vivo. The following applies: grapevine young plants, preventive spray, 10 ppm active ingredient, evaluated 6 days after inoculation. On the procedure: To produce a suitable preparation of active compound, 1 part by weight of active compound is mixed with the stated amounts of solvent and emulsifier, and the concentrate is diluted with water to the desired concentration.
To test for preventive activity, young plants are sprayed with the preparation of active compound at the stated rate of application. After the spray coating has dried on, the plants are inoculated with an aqueous spore suspension of Plasmopara viticola and then remain for 1 day in an incubation cabinet at approximately 20° C. and a relative atmospheric humidity of 100%. The plant is subsequently placed for 4 days in a greenhouse at approximately 21° C. and a relative atmospheric humidity of approximately 90%. The plants are then misted and placed for 1 day in an incubation cabinet.
The test is evaluated 6 days after the inoculation. 0% means an efficacy which corresponds to that of the untreated control, while an efficacy of 100% means that no disease is observed.

Read-outs that look alike come from different tables or passages of the source. Marks after values point to notes of the source that are not given here.

One may read the chromatographic logP as lipophilicity estimated from chromatographic retention. Lower therefore signals lower lipophilicity.

Turning to `Cn1c(/C(=N\OCc2cccc(NC(=O)OC(C)(C)C)n2)c2ccccc2)noc1=S` [Example 1, tert-butyl {6-[({[(Z)-(4-methyl-5-thioxo-4,5-dihydro-1,2,4-oxadiazol-3-yl)(phenyl)methylene]amino}oxy)methyl]pyridin-2-yl}carbamate], the “% efficacy” value in the data set on Phytophthora infestans came to 97%. Further, the chromatographic logP in data set [1] came out at 4.66.
`C#CCCOC(=O)Nc1cccc(CO/N=C(/c2ccccc2)c2noc(=S)n2C)n1` [Example 2, but-3-yn-1-yl {6-[({[(Z)-(4-methyl-5-thioxo-4,5-dihydro-1,2,4-oxadiazol-3-yl)(phenyl)methylene]amino}oxy)methyl]pyridin-2-yl}carbamate]: the “% efficacy” value with Phytophthora infestans is listed as 93%. In data set [1], this molecule registered a chromatographic logP of 3.87.
`C#CCC(C)(C)OC(=O)Nc1cccc(CON=C(c2ccccc2)c2noc(=S)n2C)n1` [Example 3]: the “% efficacy” value in the data set on Phytophthora infestans came to 93%. Besides, the LogP in data set [1] was 4.54^[a].
`Cn1c(C(=NOCc2cccc(NC(=O)OCc3ccccc3)n2)c2ccccc2)noc1=S` [Example 4]: the LogP in data set [1] was 4.58^[a].
In the case of `CCCCCOC(=O)Nc1cccc(CON=C(c2ccccc2)c2noc(=S)n2C)n1` [Example 5], the “% efficacy” value in the data set with Phytophthora infestans is given as 80%. Moreover, the LogP in data set [1] is 5.05^[a].
Regarding `CCCCC(=O)Nc1cccc(CON=C(c2ccccc2)c2noc(=S)n2C)n1` [Example 6], in data set [2], the LogP is 4.18^[a]. Further, the “% efficacy” value with Phytophthora infestans was found to be 99%; in the data set with Pyrenophora teres it was 96%.
For the molecule `Cn1c(/C(=N\OCc2cccc(N)n2)c2ccccc2)noc1=S` [Example 7, 3-[(Z)-{[(6-aminopyridin-2-yl)methoxy]imino}(phenyl)methyl]-4-methyl-1,2,4-oxadiazole-5(4H)-thione], in the data set on Phytophthora infestans, the “% efficacy” value stood at 99%. The molecule further yielded a chromatographic logP in data set [1] of 1.59.
Take `Cn1oc(=S)nc1C(=NOCc1csc(NC(=O)OCCc2ccccc2)n1)c1ccccc1` [Example 8]: the “% efficacy” value with Phytophthora infestans was 79%. Moreover, the LogP in data set [1] is 3.76^[a].
In the case of `C#CCCOC(=O)Nc1nc(CON=C(c2ccccc2)c2nc(=S)on2C)cs1` [Example 9], in the data set on Phytophthora infestans, the “% efficacy” value was found to be 89%. The LogP in data set [1] is 2.96^[a].
Consider `Cn1oc(=S)nc1C(=NOCc1csc(NC(=O)COc2ccccc2)n1)c1ccccc1` [Example 10], for which the LogP in data set [2] was 3.31^[a]. The figures for the “% efficacy” value in the data set with Phytophthora infestans and with Botrytis cinerea were 84% and 74%, respectively.
In the case of `Cn1oc(=S)nc1C(=NOCc1csc(NC(=O)C2COc3ccccc3O2)n1)c1ccccc1` (centres unmarked) [Example 11], the LogP in data set [2] was 3.50^[a]. For the same molecule, the “% efficacy” value stood at 76% with Phytophthora infestans and 82% with Plasmopara viticola.
For the molecule `Cn1oc(=S)nc1C(=NOCc1csc(NC(=O)OC2CC3CCC2C3)n1)c1ccccc1` (centres unmarked) [Example 12], the LogP in data set [1] is 4.06^[a].
As for `CCCCCCCC(=O)Nc1nc(CON=C(c2ccccc2)c2nc(=S)on2C)cs1` [Example 13], the “% efficacy” value in the data set with Phytophthora infestans is recorded as 98%. Besides, in data set [1], the LogP is 4.39^[a].
For the molecule `Cn1oc(=S)nc1C(=NOCc1csc(NC(=O)C2(C)CC2)n1)c1ccccc1` [Example 15], the LogP in data set [2] is 3.11^[a]. The results for the “% efficacy” value in the data set with Phytophthora infestans and in the data set with Botrytis cinerea were 99% and 95%, respectively.
In the case of `CCCCCC(=O)Nc1nc(CON=C(c2ccccc2)c2nc(=S)on2C)cs1` [Example 16], the LogP in data set [2] is 3.63^[a]. Further, the “% efficacy” value is listed as 76% in the data set on Phytophthora infestans and 95% in the data set with Botrytis cinerea.
Turning to `C#CCCCCOC(=O)Nc1nc(CON=C(c2ccccc2)c2nc(=S)on2C)cs1` [Example 17], the “% efficacy” value in the data set with Phytophthora infestans is recorded as 100%. Also, the LogP in data set [1] is 3.44^[a].
In the case of `CCC(C)SC(=O)Nc1nc(CON=C(c2ccccc2)c2nc(=S)on2C)cs1` (centres unmarked) [Example 18], the “% efficacy” value in the data set with Phytophthora infestans was found to be 83%. In data set [1], the LogP is 3.90^[a].
Turning to `C#CCCOC(=O)Nc1cccc(CON=C(c2ccccc2)c2nc(=NC#N)on2C)n1` [Example 19], the LogP in data set [1] was 3.13^[a].
For `Cn1oc(=S)nc1/C(=N\OCc1csc(N)n1)c1ccccc1` [Example 20, 3-[(Z)-{[(2-amino-1,3-thiazol-4-yl)methoxy]imino}(phenyl)methyl]-2-methyl-1,2,4-oxadiazole-5(2H)-thione], in data set [1], the chromatographic logP turned out to be 1.53.
For the molecule `Cn1oc(=S)nc1C(=NOCc1csc(NC(=O)C(C)(C)C)n1)c1ccccc1` [Example 21], the LogP in data set [1] is 3.31^[a].
With `C#CCC(C)OC(=O)Nc1nc(CON=C(c2ccccc2)c2nc(=S)on2C)cs1` (centres unmarked) [Example 22], the “% efficacy” value in the data set with Phytophthora infestans was 74%. Besides, the LogP in data set [1] was 3.23^[a].
With `Cn1oc(=S)nc1C(=NOCc1csc(NC(=O)c2ccccc2)n1)c1ccccc1` [Example 23], the “% efficacy” value is given as 71% in the data set with Phytophthora infestans and 99% in the data set on Botrytis cinerea. Also, the LogP in data set [1] is 3.31^[a].
In the case of `CCCCCCC(=O)Nc1nc(CON=C(c2ccccc2)c2nc(=S)on2C)cs1` [Example 24], the LogP in data set [2] was 3.99^[a]. The “% efficacy” value with Phytophthora infestans is listed as 79%; with Botrytis cinerea, 84%.
For `C#CCCC(C)OC(=O)Nc1nc(CON=C(c2ccccc2)c2nc(=S)on2C)cs1` (centres unmarked) [Example 25], the LogP in data set [1] is 3.41^[a].
For the molecule `C#CCCOC(=O)Nc1cccc(CON=C(c2ccccc2)c2nc(=S)on2C)n1` [Example 26], in data set [1], the LogP was 3.15^[a].
Turning to `Cn1oc(=S)nc1C(=NOCc1csc(NC(=O)OCCOc2ccccc2)n1)c1ccccc1` [Example 27], in the data set on Phytophthora infestans, the “% efficacy” value is 90%. Also, the LogP in data set [1] was 4.18^[a].
Regarding `CN1C(C(=NOCc2cccc(NC(=O)OC(C)(C)C)n2)c2ccccc2)=NOS1=O` (centres unmarked) [Example 28], the LogP in data set [1] was 4.18^[a].
Consider `C#CCCCOC(=O)Nc1nc(CON=C(c2ccccc2)c2nc(=S)on2C)cs1` [Example 29], for which the LogP in data set [2] is 3.19^[a]. For the same molecule, the “% efficacy” value in the data set with Botrytis cinerea is listed as 71%.
With `Cn1oc(=S)nc1/C(=N\OCc1csc(NC(=O)OC(C)(C)C)n1)c1ccccc1` [Example 30, tert-butyl {4-[({[(Z)-(2-methyl-5-thioxo-2,5-dihydro-1,2,4-oxadiazol-3-yl)(phenyl)methylene]amino}oxy)methyl]-1,3-thiazol-2-yl}carbamate], the figures for the “% efficacy” value with Phytophthora infestans, with Pyrenophora teres and with Plasmopara viticola were 100%, 86% and 79%, respectively. The same molecule yielded a chromatographic logP in data set [1] of 3.53.
As to `CC(COc1ccccc1)OC(=O)Nc1nc(CON=C(c2ccccc2)c2nc(=S)on2C)cs1` (centres unmarked) [Example 31], the LogP in data set [1] was 4.44^[a].
For the molecule `CCCCC(CC)COC(=O)Nc1nc(CON=C(c2ccccc2)c2nc(=S)on2C)cs1` (centres unmarked) [Example 32], the LogP in data set [1] was 5.55^[a].
In data set [1], `CNC(=N\O)/C(=N\OCc1cccc(NC(=O)OC(C)(C)C)n1)c1ccccc1` [VIII-1, tert-butyl {6-[({[(1Z,2Z)-2-(hydroxyimino)-2-(methylamino)-1-phenylethylidene]amino}oxy)methyl]pyridin-2-yl}carbamate] showed a chromatographic logP of 2.6.

The values above are taken from patent US20160016944A1, “FUNGICIDAL 3--HETEROCYCLE DERIVATIVES” (priority 2013, published 2016).
